Experimental findings from ChEMBL document CHEMBL5034025 (Eur J Med Chem, 2021) are described below.

Molecules are shown by their SMILES.

The target of this experiment is Glutaminyl-peptide cyclotransferase (Homo sapiens, UniProt Q16769). The experiment is described as follows: Inhibition of human recombinant glutaminyl cyclase using H-Gln-AMC hydrobromide as substrate measured after 15 mins by fluorimetry.
Glutaminyl-peptide cyclotransferase, sequence (Q16769 whole entry): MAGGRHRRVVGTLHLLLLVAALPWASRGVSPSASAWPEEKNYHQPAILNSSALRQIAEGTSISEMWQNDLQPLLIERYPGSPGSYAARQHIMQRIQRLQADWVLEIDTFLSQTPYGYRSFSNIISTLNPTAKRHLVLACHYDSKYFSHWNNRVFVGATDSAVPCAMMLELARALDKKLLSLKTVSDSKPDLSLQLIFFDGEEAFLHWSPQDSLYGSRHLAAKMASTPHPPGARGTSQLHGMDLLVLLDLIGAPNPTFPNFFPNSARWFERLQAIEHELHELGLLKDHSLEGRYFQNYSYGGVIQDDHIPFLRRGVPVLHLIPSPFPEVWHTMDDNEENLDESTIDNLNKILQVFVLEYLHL

As to `COc1ccc(N(C(=S)NCCCn2cncc2C)C2CCN(C)CC2)cc1OC`, the half-inhibitory concentration (IC50) came out at 6.1 nM.
